Data from article PMC12257544, “Fluorescent Isostere (Fluostere) of the Carboxylate: Design of hDHODH Fluorescent Inhibitors as Proof of Concept” (Journal of Medicinal Chemistry, 2025).

Assays:
A549 cells = experiment: Cell viability assay (CellTiter-Glo); format: cell-based; conditions: Homo sapiens, A549, 72 h; 3 days of culture; read-out: Viability EC50 A549 (C.L. 95 %)
Method: (§1) After 3 days of culture, the percentage of live cells was determined using the CellTiter-Glo Luminescent assay (Promega, Milan, Italy), following the manufacturer’s instructions.

K562 cells = experiment: Cell viability assay (CellTiter-Glo); format: cell-based; conditions: Homo sapiens, K562, 72 h; 3 days of culture; read-out: Viability EC50 K562 (C.L. 95 %)
Method: as §1

hCoV-OC43 = experiment: Antiviral focus-forming reduction assay (FFRA) in HCT-8 cells; format: cell-based, human coronavirus OC43
Method: After virus adsorption (2 h at 33 °C), the infected cell cultures were incubated in medium containing the corresponding compounds plus 1% (w/v) methylcellulose (Merck) and 1% (v/v) FBS. […] Viral foci were microscopically counted, and the mean plaque counts for each drug concentration was converted in viral titer (PFU/mL).

THP-1 cells = experiment: Confocal fluorescence microscopy and Red-MitoTracker co-localization; format: cell-based, human; conditions: 10 μM, 24 h
Method: Thus, compounds 11a and 14 were subsequently examined in the context of living cells to determine whether they retained their fluorescence profile after entry into target cells. First, both compounds were incubated for 24 h with THP-1 cells at a concentration of 10 μM. After washing with PBS buffer, cells were analyzed under confocal microscopy using an appropriate laser stimulation (λex: 405 nm, λem: […]) to excite the molecules.
Co-localization experiments were performed to examine whether compound 11a may reach the cellular compartment where hDHODH is located. For this, a specific mitochondrial stain marker in the two cell lines in which the biological activities of 11a were observed, namely THP-1 and HCT-8 cells, was used. The compound was therefore incubated with THP-1 cells (Figure ) or HTC-8 cells (Figure ) at 37 °C for 24 h. Then, cells were stained with Red-MitoTracker (a specific fluorescent probe for mitochondrial targeting) for 30 min at 37 °C.
For fluorescence analysis, 10 μM of target compounds were incubated with THP-1 for 24 h. After washing the cells with a PBS buffer solution, they were analyzed under confocal microscopy imaging technique using the appropriate laser to excite the molecule. For the colocalization experiments, HCT-8 cells (55,000 cells/well) were plated on μ-Slide 8 well high glass bottom (IBIDI, Gräfelfing, Germany) and treated for 24 h with 10 μM of 11a at 37 °C. Then, cells were stained with MitoTracker Red CMXRos (ThermoFischer, Carlsbad, CA, USA) (1:4000) for 30′ at 37 °C and after washing with PBS buffer solution, cells were visualized with a Leica TCS SP5 multiphoton-inverted confocal microscope equipped with LAS AF matrix software. Live cells were imaged using an HCX PL APO 63×/1.4 NA oil immersion objective. Images were collected with excitation of ligand 11a at λex = 405 nm and emission at λem = 500 nm, Red-MitoTracker at λex = 581 nm and emission at λem = 605 nm.

hDHODH enzyme GST-tagged = hDHODH enzyme GST-tagged (Homo sapiens, UniProt Q02127); experiment: hDHODH inhibition assay (DCIP reduction)
Sequence of hDHODH enzyme GST-tagged (Q02127 whole entry): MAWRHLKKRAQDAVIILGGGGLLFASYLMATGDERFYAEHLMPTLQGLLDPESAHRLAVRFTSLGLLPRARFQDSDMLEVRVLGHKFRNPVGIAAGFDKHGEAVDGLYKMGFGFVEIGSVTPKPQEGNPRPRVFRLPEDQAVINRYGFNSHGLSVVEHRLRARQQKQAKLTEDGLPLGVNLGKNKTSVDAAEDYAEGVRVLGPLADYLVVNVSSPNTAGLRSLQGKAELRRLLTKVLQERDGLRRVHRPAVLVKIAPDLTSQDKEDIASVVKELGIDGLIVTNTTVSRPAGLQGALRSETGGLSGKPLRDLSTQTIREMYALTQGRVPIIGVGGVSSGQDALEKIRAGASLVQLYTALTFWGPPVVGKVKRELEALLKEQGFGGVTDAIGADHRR
Method: The enzyme (around 60 nM) was preincubated for 5 min at 37 °C in Tris-buffer solution (pH 8.0) with coenzyme Q10 (100 μM), tested compounds at different concentrations (final DMSO concentration 0.1% v/v), and DCIP (50 μM). The reaction was initiated by addition of DHO (500 μM) and the reduction was monitored at λ = 650 nm. […] Values are means ± SE of three independent experiments.

With `Oc1nn2ccccc2c1/C=C/c1c(F)c(F)c(-c2ccccc2)c(F)c1F` [Compound 11a, (E)-3-(2-(2,3,5,6-Tetrafluoro-[1,1’-biphenyl]-4-yl)vinyl)pyrazolo[1,5-a]pyridin-2-ol] the EC50 (A549 cells) was 423 nM, the EC50 (K562 cells) was 114 nM and the EC50 (hCoV-OC43; Betacoronavirus 1, OC43, HCT-8, 72 h, read-out: EC50, concentration inhibiting 50% of virus replication, hCoV-OC43, FFRA in HCT-8 cells, 72 h p.i., full treatment) was 2300 ± 500 nM. For the same compound, the EC90 (hCoV-OC43; Betacoronavirus 1, OC43, HCT-8, 72 h, read-out: EC90, concentration inhibiting 90% of virus replication) was 23300 ± 400 nM, the “SI, Selectivity Index (ratio of CC50 to EC50)” value (hCoV-OC43; HCT-8 CC50 / hCoV-OC43 EC50) was 131 and the intracellular localization (THP-1 cells; THP-1) was “localize in the cytosol”. The “fluorescence in living cells” value (THP-1 cells; THP-1, λex 405 nm) was “recovered a strong fluorescence”, the “co-localization with Red-MitoTracker” value (THP-1 cells; THP-1 cells) was “localize into mitochondria” and the IC50 (hDHODH enzyme GST-tagged) was 170 nM.
